Values joined by “and” are separate entries in the source; they are usually repeats but may differ in a detail not shown here. Equal entries are not always repeated.
Tests used:
Type in all cases: cell-based
320 non-olfactory GPCRs [1] = target: T1, 320 non-olfactory GPCRs (Homo sapiens, UniProt O00254)
T1 construct: expressed in transfected cells; host or cells: HTLA cells

320 non-olfactory GPCRs [2] = target: T2, 320 non-olfactory GPCRs (Homo sapiens, UniProt P25116)
T2 construct: expressed in transfected cells; host or cells: HTLA cells

320 non-olfactory GPCRs [3] = target: T3, 320 non-olfactory GPCRs (Homo sapiens, UniProt P41968); details: receptor MC3Rb; replicate values, Fig_4g
T3 construct: expressed in transfected cells; host or cells: HTLA cells

320 non-olfactory GPCRs [4] = target: 320 non-olfactory GPCRs (Homo sapiens, UniProt P61073)
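Wherever Fold of Basal is given: compound tested at 1 µM final concentration.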
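Wherever GPCRome agonism screen response is given: fold over basal response of each receptor without drug.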

T3 sequence (P41968 whole entry): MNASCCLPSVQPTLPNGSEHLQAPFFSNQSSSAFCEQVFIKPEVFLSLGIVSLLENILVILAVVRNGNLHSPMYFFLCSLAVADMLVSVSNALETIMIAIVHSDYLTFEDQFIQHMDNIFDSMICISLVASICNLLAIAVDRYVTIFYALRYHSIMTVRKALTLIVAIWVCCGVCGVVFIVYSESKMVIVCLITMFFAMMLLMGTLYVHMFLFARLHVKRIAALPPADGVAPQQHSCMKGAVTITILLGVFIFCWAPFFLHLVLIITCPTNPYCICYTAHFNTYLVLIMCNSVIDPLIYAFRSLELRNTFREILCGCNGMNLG
T2 sequence (P25116 22-425): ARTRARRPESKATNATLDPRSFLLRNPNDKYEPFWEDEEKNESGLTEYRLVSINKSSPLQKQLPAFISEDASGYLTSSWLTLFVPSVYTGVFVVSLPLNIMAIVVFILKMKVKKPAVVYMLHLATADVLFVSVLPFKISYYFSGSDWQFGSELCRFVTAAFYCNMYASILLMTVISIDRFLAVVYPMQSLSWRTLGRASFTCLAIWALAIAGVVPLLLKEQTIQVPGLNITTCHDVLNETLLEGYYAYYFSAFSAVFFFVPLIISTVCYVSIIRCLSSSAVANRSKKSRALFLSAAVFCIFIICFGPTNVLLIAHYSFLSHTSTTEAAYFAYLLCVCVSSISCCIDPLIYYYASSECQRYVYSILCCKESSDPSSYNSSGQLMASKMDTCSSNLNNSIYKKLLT
T1 sequence (O00254 22-374): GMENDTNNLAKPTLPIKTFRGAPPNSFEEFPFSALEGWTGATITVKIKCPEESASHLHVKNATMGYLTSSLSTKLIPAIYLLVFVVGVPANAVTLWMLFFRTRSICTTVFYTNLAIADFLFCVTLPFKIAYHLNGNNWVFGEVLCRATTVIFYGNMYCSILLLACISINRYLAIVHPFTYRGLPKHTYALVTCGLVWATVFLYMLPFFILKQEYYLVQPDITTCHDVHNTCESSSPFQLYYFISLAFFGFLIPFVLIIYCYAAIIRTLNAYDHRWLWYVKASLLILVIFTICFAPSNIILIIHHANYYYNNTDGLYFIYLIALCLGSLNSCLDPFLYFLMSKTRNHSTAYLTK
Chain of 320 non-olfactory GPCRs (Homo sapiens, UniProt P61073) (P61073 whole entry): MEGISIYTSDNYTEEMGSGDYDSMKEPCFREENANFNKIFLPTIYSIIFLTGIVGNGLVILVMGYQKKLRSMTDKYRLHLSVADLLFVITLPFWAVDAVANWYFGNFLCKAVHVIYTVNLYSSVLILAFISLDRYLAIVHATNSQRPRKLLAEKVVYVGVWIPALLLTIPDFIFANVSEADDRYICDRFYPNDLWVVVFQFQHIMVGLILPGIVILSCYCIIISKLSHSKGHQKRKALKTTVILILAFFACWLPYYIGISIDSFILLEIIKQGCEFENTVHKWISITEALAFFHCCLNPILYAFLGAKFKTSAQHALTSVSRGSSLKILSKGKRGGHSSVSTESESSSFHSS

## CCOc1cccc2cc(C(C)NCC3(O)CCCCC3)oc12 (stereo not shown) [O4LE6]
320 non-olfactory GPCRs [1]
  Fold of Basal: 0.8171 and 1.363 and 1.064 and 0.8535
320 non-olfactory GPCRs [2]
  Fold of Basal: 0.906 and 0.8507 and 1.071 and 1.142
320 non-olfactory GPCRs [3]
  GPCRome agonism screen response: 1.102 and 1.23 and 1.725 and 1.228
320 non-olfactory GPCRs [4]
  Fold of Basal: 0.9863 and 0.8615 and 0.8471 and 0.9066

Reference: PMC7044277 (Nature Communications, 2020)
